Values joined by “and” are separate entries in the source; they are usually repeats but may differ in a detail not shown here. Equal entries are not always repeated. “Also recorded” adds a separate entry of the source.
Assays:
[1] = test system: patients having headaches and neck pain; assay: Example 9: topical CBD at the back of the neck (Table 3); assay type: in vivo, human
Description: In Example 9, 13 patients having headaches and neck pain were treated with topical CBD at the back of the neck. The treatment comprised a dose of either 15 mg or 30 mg cannabinoid drugs, with the majority being CBD, the source of the CBD being CBD oil commercially available from CannaVest.

[2] = test system: patient with atonic seizures; assay: Example 17: 1 g of 1.6% CBD cream nuchal, atonic seizures, EEG; assay type: in vivo, human
Description: In Example 17, a patient presented with atonic seizures. The patient would suddenly freeze and fall down (e.g., riding a bike, at school, etc.). FIG. 11 is a baseline EEG taken at the initial examination, showing cortical irritability on the left central region c/w potential for seizures.
The patient was treated with 1 g of 1.6% CBD cream to the nuchal (back of the neck). […] FIG. 13 is a brain MRI of the patient showing a left thalamic hamartoma, a benign developmental process, likely irritating the brain and causing their seizures.

human patients = assay: Example 5: topical cannabidiol (CBD) formulation on the back of the neck, 40 mg dose, patient cases (Table 1); assay type: in vivo
Description: The following patients were treated with a topical cannabidiol (CBD) formulation administered on the back of the neck on human patients at a 40 mg dose, as more specifically described below in Table 1: […]

[3] = test system: patient with autism and generalized seizures; assay: Example 15: 1 g of 2% CBD cream nuchal, autism and generalized seizures, EEG; assay type: in vivo, human
Description: In Example 15, a patient presented with autism and generalized seizures. They were uncontrolled on Lamictal, Depakote, Keppra, Zonegran, ethosuximide/Zarontin. When examined, they presented with seizures about every 2 weeks on Banzel, Onfi, and Topamax as antiepileptics. FIG. 7 is a baseline EEG taken at the initial examination, showing seizure focus, showing generalized slowing and disorganization with left frontal sharp waves and paroxysms of sharp waves and spikes.
The patient was treated with 1 g of 2% CBD cream to the nuchal (back of the neck). […] They continued therapy with the topical CBD cream to the nuchal region twice daily, and the Topamax was tapered off, resulting in added overall improved encephalopathy.

**Q.** What does the source list for C=C(C)[C@@H]1CCC(C)=C[C@H]1c1c(O)cc(CCCCC)cc1O [CBD, cannabidiol]?
**A.** result after topical CBD, in words (Table 3) ([1]; 15 mg or 30 mg cannabinoid drugs (CBD oil) topical, one patient per entry): improved mobility and After week of daily use, headache free and calm, less anxious, and breathing easier. and Headache and neck pain resolved and Chronic daily headaches resolved after daily and Neck pain resolved and 2×/day with benefit for past 2 months. Injury and the neck, pain resolve and ROM improved and chronic headache and improved range and Pain resolved after several and All pain symptoms resolved after 3 weeks of; right facial weakness and decreased sensation improved ([1]; Bell's palsy, CBD to back of neck and region of stylomastoid foramen): 30%; pain (headache, neck, TMJ, back, thoracic) reduction ([1]; after topical CBD, single patients): 50% and diminished 50% for the first time. Prescribed and Chronic back pain improved 30% and Thoracic pain reduced 30% within and Headaches and neck pain improved 30% with; ROM of neck improved ([1]; person, 5 minutes after topical CBD to the neck): 80%. Will continue to use daily.; time after topical CBD at which the effect was seen ([1]; single patients): 5 minutes after topical CBD to back of neck, and 5-10 minutes and 5 minutes after topical CBD application to and ≤ 15 minutes and within 15 minutes after topical CBD and ≤ 10 minutes of topical CBD; EEG after CBD dose ([2]; 10 minutes after application of 1 g of 1.6% CBD cream (FIG. 12)): attenuated seizure focus; seizure status on treatment ([2]; topical CBD nuchal since October 2015, only medication): seizure-free since initiating topical CBD therapy; time after topical CBD at which the effect was seen (human patients; 40 mg topical CBD on back of neck, single patients): 10-15 minutes after nuchal and 15 minutes and within 15 minutes. and 10 minutes after topical CBD, and hand function within 15 minutes; and 20 minutes after 40 mg topical and 5 minutes after 40 mg topical and 5 minutes and 10-15 minutes after topical CBD,; anxiety level after nuchal topical CBD (human patients; 40 mg, person in panic attack, before 7-8 of 10): anxiety from 7-8 of 10 to 4 of 10; time without freezing episodes after one dose (human patients; one dose of 40 mg topical CBD, Parkinson's patient with 10-12 freezing episodes per day): over 24 hours; also more; clinical result ([3]; 2% CBD cream nuchal, continued twice daily): more alert and interactive; also recorded: Seizure frequency also was reduced; EEG after CBD application ([3]; within one minute of application of 1 g of 2% CBD cream (FIG. 8)): improvement in the EEG background without previous burst activity; also recorded: right fast activity and sharp waves attenuated
